Assay results reported in ChEMBL document CHEMBL1134898, “Synthesis and biological evaluation of novel D-2'-azido-2',3'-dideoxyarabinofuranosyl-4'-thiopyrimidines and purines” (Bioorg Med Chem Lett, 2002).
≈ marks a conversion by molar mass, not a printed value.

Assays:
Human alphaherpesvirus 2 = assay: Compound was tested for antiviral activity against HSV-2; assay type: functional, organism-based
MT4 [1] = assay: Compound was tested for antiviral activity indicative of 50% cytopathic concentration in virus (HIV-1) infected MT-4 cells.; assay type: functional, cell-based; conditions: Homo sapiens
Human alphaherpesvirus 1 = assay: Compound was tested for antiviral activity against HSV-1; assay type: functional, organism-based
MT4 [2] = assay: Cytotoxicity indicative of 50% survival concentration in virus-uninfected MT-4 cells.; assay type: functional; conditions: Homo sapiens
MT4 [3] = assay: Cytotoxicity indicative of 50% survival concentration in virus -uninfected MT-4 cells.; assay type: functional; conditions: Homo sapiens
MT4 [4] = assay: Cytotoxicity indicative of 50% survival concentration in HSV-1-uninfected MT-4 cells.; assay type: functional; conditions: Homo sapiens
MT4 [5] = assay: Cytotoxicity indicative of 50% survival concentration in HSV-2-uninfected MT-4 cells.; assay type: functional; conditions: Homo sapiens

SMILES	EC50 (Human alphaherpesvirus 2) [µg/mL]	EC50 (MT4 [1]) [µg/mL]	EC50 (Human alphaherpesvirus 1) [µg/mL]	CC50 (MT4 [2]) [µg/mL]	CC50 (MT4 [3]) [µg/mL]	CC50 (MT4 [4]) [µg/mL]	CC50 (MT4 [5]) [µg/mL]
[N-]=[N+]=N[C@H]1C[C@@H](CO)S[C@@H]1n1cnc2c(N)ncnc21	> 100	> 17.3	> 100	17.3 (≈ 59.2 µM)			
CNc1ncnc2c1ncn2[C@@H]1SC(CO)C[C@@H]1N=[N+]=[N-] (single isomer, unassigned)	> 100	> 48.1	> 100	48.1 (≈ 157 µM)			
[N-]=[N+]=N[C@H]1C[C@@H](CO)S[C@H]1n1cnc2c(N)ncnc21	> 100	> 66.6	> 100	66.6 (≈ 228 µM)			
Cc1cn([C@@H]2S[C@H](CO)C[C@@H]2N=[N+]=[N-])c(=O)[nH]c1=O	> 100	> 56.5	> 100	56.1 (≈ 198 µM)			
Cc1cn([C@H]2C[C@H](N=[N+]=[N-])[C@@H](CO)O2)c(=O)[nH]c1=O [ZIDOVUDINE]	> 100	0.0005 (≈ 0.00187 µM)	0.52 (≈ 1.95 µM)	0.52 (≈ 1.95 µM)			
[N-]=[N+]=N[C@H]1C[C@@H](CO)S[C@H]1n1ccc(N)nc1=O	> 100	> 41.7	> 100		41.7 (≈ 155 µM)		
CNc1ncnc2c1ncn2[C@H]1S[C@H](CO)C[C@@H]1N=[N+]=[N-]	> 100	> 61.5	> 100	61.5 (≈ 201 µM)			
Nc1nc2c(ncn2COCCO)c(=O)[nH]1 [ACYCLOVIR]	0.88 (≈ 3.91 µM)		0.13 (≈ 0.577 µM)			> 76.6	> 11.4
[N-]=[N+]=NC1C[C@@H](CO)S[C@@H]1n1ccc(N)nc1=O (stereo not given in full)	> 100	> 100	> 100	> 100			
Cc1cn([C@H]2S[C@H](CO)C[C@@H]2N=[N+]=[N-])c(=O)[nH]c1=O	> 100	> 63.5	> 100	63.5 (≈ 224 µM)			
